Experimental findings from PMC3601065 (PLoS ONE, 2013) are described below.

One data set addresses HLA-A*0201 (Homo sapiens, UniProt P04439, D140Y/D185E/D98H/E176V/E277Q/G131W/G231S/I119V/I121R/I166T/I218V/L300P/L318F/N151K/N90K/P208A/P217A/Q86G/Q94H/R138H/R169H/T345S). Description: biochemical. Type of data set: binding.

Where no end group is shown, it is not given here.

As usually defined, the IC50 is the point on the concentration scale where inhibition reaches its midpoint. On to ILDAHSLYL [IL9], for which the “cytotoxicity of peptide-specific CD8^+ T cells” value in the data set with T2 target cells is given as “highly cytotoxic”. For the same sequence, half-maximal inhibition at HLA-A*0201 (IC50) was put at 1.3 nM.

With VLSEWLPVT [VT9], the “cytotoxicity of peptide-specific CD8^+ T cells” value with T2 target cells was “highly cytotoxic”. Also, the IC50 against HLA-A*0201 amounted to 15 nM.
